Data: patent US8921405B2, “Compounds” (Orexo AB, priority 2009, dated 2014)

Biological target: T1, recombinant human mPGES-1 (Homo sapiens, UniProt O14684)
T1 construct: made in house; host or cells: Rosetta E. coli (membrane/microsome fraction)
T1 sequence (O14684 1-152): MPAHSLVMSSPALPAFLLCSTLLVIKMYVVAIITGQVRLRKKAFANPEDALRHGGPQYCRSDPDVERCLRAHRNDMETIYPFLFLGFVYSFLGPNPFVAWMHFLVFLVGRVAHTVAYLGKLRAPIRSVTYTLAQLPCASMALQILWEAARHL
Test: mPGES-1 HTRF assay (inhibition of PGE2 formation from PGH2)
Assay type: biochemical
Details: HTRF assay
How it was run: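 Microsomes of E. coli expressing human mPGES-1, in 0.1 M KPi pH 7.4 with 2.5 mM GSH, preincubated 25 min at room temperature with inhibitor, then given PGH2 for 1 min before FeCl2 acidic stop. PGE2 quantified by HTRF (665/620 nm ratio) against synthetic PGE2 standard curve; percent inhibition versus controls.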

SMILES	IC50
Cn1c(Nc2cc(CN[S+]([O-])C(C)(C)C)ccc2Cl)nc2cc(C(=O)Nc3ccc(Br)cc3)c(OCC(F)F)cc21 (centres unmarked) [Example 81, N-(4-Bromo-phenyl)-2-(2-chloro-5-{[(tert-butylsulfinyl)-amino]-methyl}-phenylamino)-6-(2,2-difluoro-ethoxy)-1-methyl-1H-benzimidazole-5-carboxylic acid amide]	2 nM
Cn1c(Nc2cc(CNS(=O)(=O)C(C)(C)C)ccc2Cl)nc2cc(C(=O)Nc3ccc(Br)cc3)c(OCC(F)F)cc21 [Example 82, N-(4-Bromo-phenyl)-2-(2-chloro-5-{[(tert-butylsulfonyl)-amino]-methyl}-phenylamino)-6-(2,2-difluoro-ethoxy)-1-methyl-1H-benzimidazole-5-carboxylic acid amide]	3 nM
Cn1c(Nc2cc(CNC(=O)C3(C(F)(F)F)CC3)ccc2C(F)(F)F)nc2cc(C(=O)Nc3ccc(Br)cc3)c(OCC(F)F)cc21 [Example 83, N-(4-Bromo-phenyl)-2-(2-trifluoromethyl-5-{[(1-trifluoromethyl-cyclopropanecarbonyl)-amino]-methyl}-phenylamino)-6-(2,2-difluoro-ethoxy)-1-methyl-1H-benzimidazole-5-carboxylic acid amide]	3 nM
Cn1c(Nc2cc(CNC(=O)C3(C(F)(F)F)CC3)c(F)cc2Cl)nc2cc(C(=O)N[C@H]3CC[C@H](C(F)(F)F)CC3)c(OCC(F)F)cc21 [Example 84, 2-(2-Chloro-4-fluoro-5-{[(1-(trifluoromethyl)cyclopropanecarbonyl)amino]methyl}-phenylamino)-6-(2,2-difluoroethoxy)-1-methyl-N-(trans-4-trifluoromethyl-cyclohex-1-yl)-1 H-benzo[d]imidazole-5-carboxamide]	4 nM
Cn1c(Nc2cc(CNC(=O)C3(C(F)(F)F)CC3)c(F)cc2Cl)nc2cc(C(=O)Nc3ccc(Br)cc3)c(OCC(F)F)cc21 [Example 85, N-(4-Bromophenyl)-2-(2-chloro-4-fluoro-5-{[(1-trifluoromethyl-cyclopropanecarbonyl)amino]methyl}phenylamino)-6-(2,2-difluoroethoxy)-1-methyl-1H-benzo[d]imidazole-5-carboxamide]	2 nM
Cn1c(Nc2cc(CNC(=O)C(C)(C)C)ccc2Cl)nc2cc(C(=O)Nc3ccc(F)c(Cl)c3)c(OCC(F)F)cc21 [Example 86, N-(3-Chloro-4-fluoro-phenyl)-2-(2-chloro-5-{[(tert-butylcarbonyl)-amino]-methyl}-phenylamino)-6-(2,2-difluoro-ethoxy)-1-methyl-1H-benzimidazole-5-carboxylic acid amide]	1 nM
Cn1c(Nc2cc(CNC(=O)C(C)(C)C)ccc2Cl)nc2cc(C(=O)NCC3CC3(C)C)c(OCC(F)F)cc21 (centres unmarked) [Example 88, N-(2,2-Dimethylcyclopropyl-methyl)-2-(2-chloro-5-{[(tert-butylcarbonyl)-amino]-methyl}-phenylamino)-6-(2,2-difluoro-ethoxy)-1-methyl-1H-benzimidazole-5-carboxylic acid amide]	2 nM
Cn1c(Nc2cc(CNC(=O)C(C)(C)C)ccc2Cl)nc2cc(C(=O)NCC3CCC3)c(OCC(F)F)cc21 [Example 89, N-(Cyclobutylmethyl)-2-(2-chloro-5-{[(tert-butylcarbonyl)-amino]-methyl}-phenylamino)-6-(2,2-difluoro-ethoxy)-1-methyl-1H-benzimidazole-5-carboxylic acid amide]	2 nM
Cn1c(Nc2cc(CNC(=O)C(C)(C)C)ccc2Cl)nc2cc(C(=O)NCC#Cc3ccccc3)c(OCC(F)F)cc21 [Example 90, N-(3-Phenylpropargyl)-2-(2-chloro-5-{[(tert-butylcarbonyl)-amino]-methyl}-phenylamino)-6-(2,2-difluoro-ethoxy)-1-methyl-1H-benzimidazole-5-carboxylic acid amide]	1 nM
COc1cc2[nH]c(Nc3cc(CNC(=O)OC(C)(C)C)ccc3C(F)(F)F)nc2cc1C(=O)N[C@H]1CC[C@H](C(F)(F)F)CC1 [Example 91, 2-({5-[(tert.Butoxycarbonyl)amino]methyl}-2-trifluoromethyl-phenylamino)-6-methoxy-N-(trans-4-trifluoromethyl-cyclohex-1-yl)-1H-benzo[d]imidazole-5-carboxamide]	4 nM
COc1cc2[nH]c(Nc3cc(CNC(=O)C(N)C(F)(F)F)ccc3C(F)(F)F)nc2cc1C(=O)N[C@H]1CC[C@H](C(F)(F)F)CC1 (stereo partly drawn) [Example 92, 2-({5-[(2-Amino-3,3,3-trifluoro-propionyl)amino]methyl}-2-trifluoromethyl-phenylamino)-6-methoxy-N-(trans-4-trifluoromethyl-cyclohex-1-yl)-1H-benzo[d]imidazole-5-carboxamide]	7 nM
COc1cc2[nH]c(Nc3cc(CNC(=O)C4(C(F)(F)F)CC4)ccc3C(F)(F)F)nc2cc1C(=O)N[C@H]1CC[C@H](C(F)(F)F)CC1 [Example 93, N-(trans-4-Trifluoromethyl-cyclohex-1-yl)-2-(2-trifluoromethyl-5-{[(1-trifluoromethylcyclopropane-carbonyl)amino]-methyl}-phenylamino)-6-methoxy-1H-benzimidazole-5-carboxylic acid amide]	2 nM
COc1cc2[nH]c(Nc3cc(CNC(=O)C4(O)CC4)ccc3C(F)(F)F)nc2cc1C(=O)N[C@H]1CC[C@H](C(F)(F)F)CC1 [Example 94, N-(trans-4-Trifluoromethyl-cyclohex-1-yl)-2-(2-trifluoromethyl-5-{[(1-hydroxy-cyclopropane-carbonyl)amino]-methyl}-phenylamino)-6-methoxy-1H-benzimidazole-5-carboxylic acid amide]	3 nM
Cn1c(Nc2cc(CNC(=O)C(C)(C)C)ccc2C(F)(F)F)nc2cc(C(=O)N[C@H]3CC[C@H](C(F)(F)F)CC3)c(OCC(F)F)cc21 [Example 95, N-(trans-4-Trifluoromethyl-cyclohex-1-yl)-1-methyl-2-(2-trifluoromethyl-5-{[(tert-butylcarbonyl)-amino]-methyl}-phenylamino)-6-(2,2-difluoro-ethoxy)-1H-benzimidazole-5-carboxylic acid amide]	1 nM
CC(C)(C)C(=O)NCc1ccc(C(F)(F)F)c(Nc2nc3cc(C(=O)N[C@H]4CC[C@H](C(F)(F)F)CC4)c(OCC(F)F)cc3[nH]2)c1 [Example 96, N-(trans-4-Trifluoromethyl-cyclohex-1-yl)-2-(2-trifluoromethyl-5-{[(tert-butylcarbonyl)-amino]-methyl}-phenylamino)-6-(2,2-difluoro-ethoxy)-1H-benzimidazole-5-carboxylic acid amide]	1 nM
Cn1c(Nc2cc(CNC(=O)C(C)(C)C)ccc2Cl)nc2cc(C(=O)N[C@H]3CC[C@H](C(F)(F)F)CC3)c(OCCF)cc21 [Example 97, N-(trans-4-Trifluoromethyl-cyclohex-1-yl)-1-methyl-2-(2-chloro-5-{[(tert-butylcarbonyl)-amino]-methyl}-phenylamino)-6-(2-fluoro-ethoxy)-1H-benzimidazole-5-carboxylic acid amide]	5 nM
Cn1c(Nc2cc(CNC(=O)C(C)(C)C)ccc2Cl)nc2cc(C(=O)N[C@H]3CC[C@H](C(F)(F)F)CC3)c(OCC(F)(F)F)cc21 [Example 98, N-(trans-4-Trifluoromethyl-cyclohex-1-yl)-1-methyl-2-(2-chloro-5-{[(tert-butylcarbonyl)-amino]-methyl}-phenylamino)-6-(2,2,2-trifluoro-ethoxy)-1H-benzimidazole-5-carboxylic acid amide]	6 nM
